In patent US9073907B2, “Thiazoles derivatives and their use as positive allosteric modulators of metabotropic glutamate receptors” (Addex Pharma S.A., priority 2009, dated 2015):
Where “and” joins values, the source holds several entries; their conditions need not be identical. Equal entries are not always repeated.

Experiments:
[1] = molecular target: T1, recombinant human mGluR4a receptors (Homo sapiens, UniProt Q14833); assay: mGluR4 assay on HEK-expressing human mGluR4: fluorescent cell based Ca2+ mobilization assay (FLIPR, Fluo-4); conditions: enhancement of EC25 glutamate response in HEK-293 cells expressing hmGluR4; mean of at least three independent experiments performed in duplicate; read-out: Ca^2+ Flux (mean EC50)
T1 construct: expressed in transfected cells
T1 sequence (Q14833 33-912): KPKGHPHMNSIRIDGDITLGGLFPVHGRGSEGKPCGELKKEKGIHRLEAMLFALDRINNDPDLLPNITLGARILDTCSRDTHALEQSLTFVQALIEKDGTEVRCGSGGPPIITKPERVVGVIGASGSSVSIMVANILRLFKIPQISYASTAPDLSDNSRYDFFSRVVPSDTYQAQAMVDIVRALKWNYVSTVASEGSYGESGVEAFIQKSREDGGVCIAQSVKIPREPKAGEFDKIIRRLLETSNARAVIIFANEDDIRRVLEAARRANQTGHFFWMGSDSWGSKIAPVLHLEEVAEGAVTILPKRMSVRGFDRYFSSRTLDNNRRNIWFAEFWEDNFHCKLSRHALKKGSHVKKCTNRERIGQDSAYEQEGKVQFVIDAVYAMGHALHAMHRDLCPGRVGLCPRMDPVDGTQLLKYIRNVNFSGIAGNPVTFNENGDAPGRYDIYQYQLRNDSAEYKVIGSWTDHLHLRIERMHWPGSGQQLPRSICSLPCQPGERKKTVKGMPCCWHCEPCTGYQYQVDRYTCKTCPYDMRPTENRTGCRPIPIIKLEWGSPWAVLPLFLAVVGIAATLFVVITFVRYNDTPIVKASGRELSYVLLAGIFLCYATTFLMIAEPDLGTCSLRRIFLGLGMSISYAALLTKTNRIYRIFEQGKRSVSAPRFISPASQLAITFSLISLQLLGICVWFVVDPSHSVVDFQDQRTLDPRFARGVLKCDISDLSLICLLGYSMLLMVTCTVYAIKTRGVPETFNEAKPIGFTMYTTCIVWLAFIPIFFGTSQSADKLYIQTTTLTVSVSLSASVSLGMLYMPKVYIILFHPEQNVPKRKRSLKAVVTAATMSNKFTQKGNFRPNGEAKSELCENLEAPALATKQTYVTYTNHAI
Excerpt: mGluR4 Assay on HEK-Expressing Human mGluR4 The compounds of the present invention are positive allosteric modulators of mGluR4 receptor. Their activity was examined on recombinant human mGluR4a receptors by detecting changes in intracellular Ca^2+ concentration, using the fluorescent Ca^2+-sensitive dye Fluo-4-(AM) and a Fluorometric Imaging Plate Reader (FLIPR, Molecular Devices, Sunnyvale, Calif.). The cDNA encoding the human metabotropic glutamate receptor (hmGluR4), (accession number NM_000841.1, NCBI Nucleotide database browser), was subcloned into an expression vector containing also the hygromycin resistance gene. In parallel, the cDNA encoding a G protein allowing redirection of the activation signal to intracellular calcium flux was subcloned into a different expression vector containing also the puromycin resistance gene. Transfection of both these vectors into HEK293 cells with PolyFect reagent (Qiagen) according to supplier's protocol, and hygromycin and puromycin treatment allowed selection of antibiotic resistant cells which had integrated stably one or more copies of the plasmids. Positive cellular clones expressing hmGluR4 were identified in a functional assay measuring changes in calcium fluxes in response to glutamate or selective known mGluR4 orthosteric agonists and antagonists. HEK-293 cells expressing hmGluR4 were maintained in media containing DMEM, dialyzed Fetal Calf Serum (10%), Glutamax™ (2 mM), Penicillin (100 units/mL), Streptomycin (100 μg/mL), Geneticin (100 μg/mL) and Hygromycin-B (40 μg/mL) and puromycin (1 μg/mL) at 37° C./5% CO2. Human mGluR4 HEK-293 cells were plated out 24 hours prior to FLIPR^384 assay in black-walled, clear-bottomed, poly-L-ornithine-coated 384-well plates at a density of 25,000 cells/well in a glutamine/glutamate free DMEM medium containing foetal bovine serum (10%), penicillin (100 units/mL) and streptomycin (100 μg/mL) at 37° C./5% CO2. On the day of the assay, the medium was aspirated and the cells were loaded with a 3 μM solution of Fluo4-AM (LuBioScience, Lucerne, Switzerland) in 0.03% pluronic acid. After 1 hour at 37° C./5% CO2, the non incorporated dye was removed by washing cell plate with the assay buffer and the cells were left in the dark at room temperature for […] before testing. All assays were performed in a pH 7.4 buffered-solution containing 20 mM HEPES, 143 mM NaCl, 6 mM KCl, 1 mM MgSO4, 1 mM CaCl2, 0.125 mM sulfapyrazone and 0.1% glucose. After 10 s of basal fluorescence recording, various concentrations of the compounds of the invention were added to the cells. Changes in fluorescence levels were first monitored for 180 s in order to detect any agonist activity of the compounds. Then the cells were stimulated by an EC25 glutamate concentration for an additional 110 s in order to measure enhancing activities of the compounds of the invention. EC25 glutamate concentration is the concentration giving 25% of the maximal glutamate response. The concentration-response curves of representative compounds of the present invention were generated using the Prism GraphPad software (Graph Pad Inc, San Diego, USA). The curves were fitted to a four-parameter logistic equation: (Y=Bottom+(Top−Bottom)/(1+10^((Log EC50−X)*Hill Slope) allowing the determination of EC50 values. The Table 3 below represents the mean EC50 obtained from at least three independent experiments of selected molecules performed in duplicate.

EC50 [1] | melting point | Structure (SMILES)
1000 to 10000 nM |  | CN(C)c1[nH]ncc1-c1csc(Nc2ncccn2)n1 [Compound 1-65, 4-(5-(Dimethylamino)-1H-pyrazol-4-yl)-N-(pyrimidin-2-yl)thiazol-2-amine]
1000 to 10000 nM | 209 to 211 °C | Cn1ccc(Nc2nc(-c3cn[nH]c3)cs2)n1 [Compound 1-27, N-(1-Methyl-1H-pyrazol-3-yl)-4-(1H-pyrazol-4-yl)thiazol-2-amine]
1000 to 10000 nM |  | c1ccc(Nc2nc(-c3cn[nH]c3)c(CN3CCOCC3)s2)nc1 [Compound 1-21, 5-(Morpholinomethyl)-4-(1H-pyrazol-4-yl)-N-(pyridin-2-yl)thiazol-2-amine]
< 100 nM | 237 °C | Fc1cccc(Nc2nc(-c3cn[nH]c3)c(F)s2)n1 [Compound 1-10, 5-Fluoro-N-(6-fluoropyridin-2-yl)-4-(1H-pyrazol-4-yl)thiazol-2-amine]
1000 to 10000 nM | 209 °C | c1ccc(Nc2nc(-c3cn[nH]c3)c(N3CCCC3)s2)nc1 [Compound 1-8, 4-(1H-Pyrazol-4-yl)-N-(pyridin-2-yl)-5-(pyrrolidin-1-yl)thiazol-2-amine]
100 to 1000 nM |  | COCc1sc(Nc2ccccn2)nc1-c1cn[nH]c1 [Compound 1-18, 5-(Methoxymethyl)-4-(1H-pyrazol-4-yl)-N-(pyridin-2-yl)thiazol-2-amine]
100 to 1000 nM |  | c1ccc(Nc2nc(-c3c[nH]nc3CC3CC3)cs2)nc1 [Compound 1-6, 4-(3-(Cyclopropylmethyl)-1H-pyrazol-4-yl)-N-(pyridin-2-yl)thiazol-2-amine]
100 to 1000 nM | 331 °C | Cc1sc(Nc2cccc(C#N)n2)nc1-c1cn[nH]c1 [Compound 1-1, 6-(5-Methyl-4-(1H-pyrazol-4-yl)thiazol-2-ylamino)picolinonitrile]
< 100 nM | 298 to 300 °C | Cc1sc(Nc2ncccn2)nc1-c1cn[nH]c1 [Compound 1-16, 5-Methyl-4-(1H-pyrazol-4-yl)-N-(pyrimidin-2-yl)thiazol-2-amine]
100 to 1000 nM |  | N#Cc1[nH]ncc1-c1csc(Nc2ccccn2)n1 [Compound 1-26, 4-(2-(Pyridin-2-ylamino)thiazol-4-yl)-1H-pyrazole-5-carbonitrile]
1000 to 10000 nM | 175 °C and 180 °C | CC(=O)NCn1cc(-c2nc(Nc3ccccn3)sc2C)cn1 [Compound 1-61, N-((4-(5-Methyl-2-(pyridin-2-ylamino)thiazol-4-yl)-1H-pyrazol-1-yl)methyl)acetamide]
< 100 nM | 299 to 304 °C | Clc1[nH]ncc1-c1csc(Nc2ccccn2)n1 [Compound 1-17, 4-(5-Chloro-1H-pyrazol-4-yl)-N-(pyridin-2-yl)thiazol-2-amine]
